{"source": "patent US8114408B2", "about": "(priority 2007, dated 2012)", "tested_on": "mice", "details": "mouse, in vivo, sc", "data": [{"substance": "3 (RRQRRF) [compound 3]", "values": [{"measurement": "immune response in immunized mice (ELISA, FIG. 2)", "value": "either an immune response occurred only in some individuals or a weak immune response was shown"}]}]}
